# Measured values from patent USRE38551E1, “Anticonvulsant enantiomeric amino acid derivatives” (priority 1996, dated 2004).
# How the values were obtained:
# [1] = test system: maximal electroshock (MES) induced seizure; experiment: maximal electroshock (MES) seizure test, mice (ip); type: in vivo; settings: for ED50: Mus musculus
# Excerpt: (§1) Compounds were screened for anticonvulsant activity in both male albino Carthworth Farms No. 1 mice (ip route) and male albino Sprague Dawley rats [oral (po) route]. Activity was established using the electrical (maximal electroshock or MES) test. In the MES test, a drop of electrolyte solution with anesthetic (0.5% butacaine hemisulfate in 0.9% sodium chloride) was used in the eyes of the animals prior to positioning the corneal electrodes and delivery of current. […] Protection endpoints were defined as the abolition of the hind limb tonic extensor component of the induced seizure. In mice, effects of compounds on forced spontaneous motor activity were determined using the rotorod test. […] Normally under these conditions, mice maintain their balance almost indefinitely. In rats, motor impairment is assessed by observing for overt evidence of ataxia, abnormal gait and stance, and/or loss of placing response and muscle tone. In the mouse identification screening study all compounds were given at three dose levels (30, 100, 300 mg/kg) and two time periods (0.5 hours, 4 hours). Typically, in the MES seizures test one animal was tested at 30 mg/kg and 300 mg/kg, and three animals at 100 mg/kg. In the rotored toxicity test four animals were tested at 30 mg/kg, and 300 mg/kg, and eight animals at 100 mg/kg.
# (§2) The quantitative determination of the median effective (ED50) and toxic doses (TD50) was conducted at previously calculated times of peak effect. Groups of at least eight animals were tested using different doses of test compound until at least two points wee determined between 100 and 0% protection and minimal motor impairment.
# [2] = test system: maximal electroshock (MES) induced seizure; experiment: maximal electroshock (MES) seizure test, rats (po); type: in vivo; settings: for ED50: Rattus norvegicus
# Excerpt: as §1, §2
# [3] = motor impairment (ataxia, gait, stance) observation, rats (po); type: in vivo; settings: male, Sprague Dawley, in vivo, rat
# Excerpt: (§3) Compounds were screened for anticonvulsant activity in both male albino Carthworth Farms No. 1 mice (ip route) and male albino Sprague Dawley rats [oral (po) route]. Activity was established using the electrical (maximal electroshock or MES) test. In the MES test, a drop of electrolyte solution with anesthetic (0.5% butacaine hemisulfate in 0.9% sodium chloride) was used in the eyes of the animals prior to positioning the corneal electrodes and delivery of current. A 60 cycle alternating current was administered for 0.2 sec. in both species, 50 mA in mice and 150 mA in rats. Protection endpoints were defined as the abolition of the hind limb tonic extensor component of the induced seizure. In mice, effects of compounds on forced spontaneous motor activity were determined using the rotorod test. […] Normally under these conditions, mice maintain their balance almost indefinitely. In rats, motor impairment is assessed by observing for overt evidence of ataxia, abnormal gait and stance, and/or loss of placing response and muscle tone. In the mouse identification screening study all compounds were given at three dose levels (30, 100, 300 mg/kg) and two time periods (0.5 hours, 4 hours). Typically, in the MES seizures test one animal was tested at 30 mg/kg and 300 mg/kg, and three animals at 100 mg/kg. In the rotored toxicity test four animals were tested at 30 mg/kg, and 300 mg/kg, and eight animals at 100 mg/kg.
# as §2, with “impairment. The dose of candidate substance required to produce the defined end-point in 50% of the animals in each test and the 95% confidence interval was calculated.” for “impairment.”
# [4] = test system: hexobarbital sleep time; experiment: hexobarbital sleep time test; type: in vivo; settings: rats
# Experimental: All rats subjected to the 5-day tolerance studies were maintained in their home cage for 24 hours and then subjected to the hexobarbital sleep time test (day 6). Each rat in each of the 3 groups was given 100 mg/kg of hexobarbital (i.p.) and the sleep time measured to the nearest minute. The mean sleep time and S.E. for each group were calculated.
# [5] = test system: liver microsomal system; experiment: 7-day liver microsomal studies; type: in vivo, rats; settings: rat, in vivo, 48 mg/kg
# Experimental: Two of the three groups of animals subjected to the hexobarbital sleep time test (chronically treated and vehicle control groups) were continued on their respective original treatment regimen for two days (days 6 and 7) and 24 hours later (day 8) subjected to liver microsomal studies. The rats were decapitated and the livers perfused with 0.9% sodium chloride solution. The livers were removed, weighed, and homogenized in 0.25M sucrose. Microsomes were prepared and their drug metabolizing capabilities (microsomal protein yield; cytochrome P-450 concentration; p-nitroanisole O-demethylase and NADPH cytochrome c reductase activities; norbenzphetamine MI complex formation; and glucuronyl transferase, erythromycin demethylase, and ethylmorphine demethylase activities) measured (Arch. Biochem. Biophys. 143: 318-329, 1971).
# [6] = target: p-nitroanisole O-demethylase; experiment: in vitro p-nitroanisole O-demethylase inhibition; type: biochemical; settings: listed as Compound A, read-out: I50, in vitro p-nitroanisole O-demethylase activity
# Excerpt: This interpretation is supported by the similar effectiveness of Compound A by the MES test, the increased hexobarbital sleep time, and the unaltered liver microsomal enzyme activity. In view of the increased hexobarbital sleep time in the 5-day treated animals, it was thought important to determine the in vitro effect of Compound A on p-nitroanisole O-demethylase activity. […] This may indicate that the potentiation of hexobarbital sleep time is central and not peripheral.
# [7] = test system: motor impairment; experiment: motor impairment (ataxia, gait, stance) observation, rats (po); type: in vivo
# Excerpt: as §3
# as §2, with “impairment. The dose of candidate substance required to produce the defined end-point in 50% of the animals in each test and the 95% confidence interval was calculated.” for “impairment.”
# [8] = rat, po, at time of peak effect
structure (smiles),measurement,setting,value
"CC(=O)NC(C)C(=O)NCc1ccccc1 (racemic) [compound 1, N-Acetyl-D,L-alanine-N′-benzylamide]",ED50,"[1]; ip, read-out: MES, ED50",76.5 mg/kg
same,ED50,"[1]; ip, read-out: MOUSE anticonvulsant dose ED50 MES",76.5 mg/kg
same,PI protective index (TD50/MES ED50),"[1]; mice, ip",5.9
same,Ratio to MES,"[1]; mouse, i.p., Neurotox/MES (Table 6)",5.9
same,ED50,"[2]; po, read-out: MES, ED50",24.2 mg/kg
same,ED50,"[2]; po, read-out: RAT anticonvulsant ED50 MES",48.2 mg/kg
same,Ratio to MES,"[2]; rat, oral, Neurotox/MES (Table 6)",20.8
same,PI protective index (TD50/MES ED50),"[2]; rat, po",>20.8
same,ED50,"[3]; oral (Table 6), read-out: RAT ED50 Neurotox",> 1000 mg/kg
same,TD50,"[3]; po, at time of peak effect, read-out: tox, TD50",> 1000 mg/kg
same,hexobarbital sleep time,[4]; 5-day treated (48 mg/kg),44.4 ± 1.9 min
same,hexobarbital sleep time,[4]; acute control (single dose 48 mg/kg),34.3 ± 1.1 min
same,NADPH cytochrome c reductase activity,"[5]; Sprague Dawley, 7 days",105.0 ± 4.1 nmol/mg/min
same,p-nitroanisole O-demethylase activity,"[5]; Sprague Dawley, 7 days",0.62 ± 0.07 nmol/mg/min
same,liver microsomal enzyme activity,[5],unaltered
same,IC50,[6],5 mM
"COC[C@@H](NC(C)=O)C(=O)NCc1ccccc1 [Ex. 1, 2, (R)-N-Benzyl-2-Acetamide-3-methoxypropionamide]","MES, ED50","[1]; mice, ip, at time of peak effect (hours in brackets)",4.5 [0.5] mg/kg
same,MOUSE anticonvulsant dose ED50 MES,"[1]; mouse, i.p. (Table 6)",4.46 mg/kg
same,RAT anticonvulsant ED50 MES,"[2]; rat, oral (Table 6)",3.90 mg/kg
same,"MES, ED50",[2]; [8],3.9 [0.5] mg/kg
same,RAT ED50 Neurotox,[7]; oral (Table 6),>500 mg/kg
same,"tox, TD50",[7]; [8],>500 [0.5] mg/kg
